In US20120282167A1, “METHOD FOR PREDICTING THE SENSITIVITY OF A TUMOR TO AN EPIGENETIC TREATMENT” (INSTITUT CURIE, priority 2009, published 2012):

Experiments:
Type in all cases: cell-based, human
[1] = tested on: genes located in the regions of downregulation in cell line CL1207; experiment: Re-expression of genes in the regions of downregulation, RT-qPCR, CL1207 cell line; details: for re-expression of genes in downregulated regions 2-7, 3-2, 3-5, 7-2, 14-1, 19-3A and 19-3B: 300 nM TSA 16 hours, 5 μM 5-aza-deoxycytidine 72 hours, or 5 μM 5-aza-deoxycytidine 48 hours followed by 300 nM TSA 10 hours; for re-expression of genes in regions 6-7 and 17-7: same treatments, effect if fold-change >1.5
Text: FIG. 3: […] The treatments were scored as having an effect (resulting in re-expression) if the fold-change between treated and non-treated was greater than 1.5. […] With both methods, all samples were run in duplicate. For all experiments involving […] and CL1207 both methods were used.

[2] = tested on: cell lines with the RES phenotype (TCCSUP, HT1376, JMSU1 and CL1207); experiment: Trichostatin A sensitivity assay (living cells counted after 72 hours, treated versus non-treated); details: on average for TCCSUP, doses 100 nM to 500 nM, read-out: IC50 (half maximal inhibitory concentration), growth inhibition
Procedure: (§1) FIG. 13: Cell viability after treatment with various doses of trichostatin A in bladder cancer cell lines with or without the RES phenotype and NHU cells. The percentage of surviving treated versus non-treated cells as a function of TSA concentration for various bladder cancer (MGHU3, RT112, T24, TCCSUP, HT1376, JMSU1, CL1207) and normal (NHU) cell lines is indicated. The number of cells surviving post treatment with TSA for 72 hours was counted and compared to control (no treatment) cultures. Cell lines with the RES phenotype are indicated with full symbols (TCCSUP, HT1376, JMSU1, CL1207) whereas cell lines without the RES phenotype (NHU, MGHU3, RT112, T24) are indicated with empty symbols. The error bars indicate the mean variation between two independent experiments.
(§2) All bladder cancer and NHU cell lines were seeded in 12-well plates at a density of 5×10^4 cells/well. Cultures were treated the next day, in duplicate, with various doses of trichostatin A, from 100 nM to 500 nM, with two wells left untreated. After 72 hours, the living cells in each treated well were harvested and counted and compared to the numbers of cells in the non-treated wells. The resulting ratio was used to assess sensitivity to trichostatin A.
(§3) The RES phenotype was characterized by strong histone K9 and K27 methylation and K9 hypoacetylation, but extremely rare DNA methylation. […]

[3] = tested on: cell lines without the RES phenotype (MGHU3, RT112 and T24) and NHU cells; experiment: as above; details: doses 100 nM to 500 nM, read-out: IC50 (half maximal inhibitory concentration), growth inhibition
Procedure: as §1, §2, §3

[4] = tested on: H3K9me3, H3K27me3 and H3K9ac at gene promoters in CL1207 cells; experiment: Chromatin immunoprecipitation (ChIP) of histone modifications in CL1207 before and after TSA; details: 300 nM TSA for 16 h
Text: FIG. 5: Analyses of epigenetic modifications in regions 2-7 and 19-3A (a) Schematic map of region 2-7 (not to scale) with CpG islands, according to the UCSC browser. The number of CpG in each island is indicated. (b) DNA methylation analyses for region 2-7: bisulfite sequencing analyses for CpG 141 and CpG 39 covering a promoter region. In each case, T1207 DNA, CL1207 DNA, NHU DNA and SssI-methylated DNA (“Met. DNA”) were studied. Each row represents an individual clone, and each box (methylated in black, unmethylated in white) represents an individual CpG site. The curved arrows indicate the transcription start sites. (c) ChIP assays were performed for promoters in region 2-7 with antibodies against trimethyl H3K9 (left panel), trimethyl H3K27 (middle panel) and acetyl H3K9 (right panel). […] (d) Schematic map of region 19-3A with CpG islands. (e) ChIP analyses for region 19-3A as in (c).
FIG. 6: Analyses of epigenetic modifications in region 3-2. (a) Schematic map of region 3-2 (not to scale) with CpG islands, according to the UCSC browser. The number of CpGs in each island is indicated. (b) DNA methylation analyses for region 3-2: bisulfite sequencing analyses for the three CpGs covering a promoter region: CpG 74, 59 and 68. In each case, DNA from T1207, CL1207 and NHU and SssI-methylated DNA (“Met. DNA”) were studied. Each row represents an individual clone and each box represents an individual CpG site. A black box indicates methylation and a white box no methylation. The curved arrows indicate the transcription start sites. (c) Methylation analysis of DLEC1 promoter by bisulfite sequencing in five tumor samples showing downregulation of region 3-2: T195, T259, T447, T910 and T1448. […]
Chromatin immunoprecipitation (ChIP) assays were carried out in duplicate in three 150 cm^2 dishes for untreated CL1207, CL1207 treated with 300 nM TSA for 16 h, TCCSUP, RT112 and NHU cells. […] The amount of immunoprecipitated target was determined by real-time PCR, in duplicate, using the ABI PRISM 7900HT Sequence Detection System. […]

[5] = tested on: genes within the seven epigenetic regions in TCCSUP, HT1376 and JMSU1 cells; experiment: Re-expression of genes of the seven RES regions after TSA, RT-qPCR (TLDA), cell lines TCCSUP, HT1376 and JMSU1
Procedure: (§4) FIG. 10: Characterization of the regional epigenetic phenotype in bladder cancer cell lines. (a) Comparison of mRNA expression for genes in region 2-7 before and after treatment with TSA in bladder cancer cell lines and NHU cells; results obtained for the CL1207 cells (from FIG. 3) are also shown. Transcript values were measured by RT-qPCR using TLDA (see Materials and Methods in experimental section). The ratio between treated and non-treated cells is shown. Error bars represent the variation between the means of two independent experiments of TSA treatment. (b) Same comparison for region 3-2. (c) Same comparison for region 19-3A. (d) Summary of the effects of TSA treatment on all bladder cancer and NHU cell lines studied. Only groups of genes in which at least two genes were re-expressed after treatment are considered (see FIG. 11). (e) ChIP analysis in TCCSUP and RT112 cells for regions 2-7, 3-2 and 19-3A, with an antibody against trimethyl residues on lysine 9 of histone 3.
(§5) FIG. 11: Comparison of the mRNA levels of the genes in regions 3-5, 7-2, 14-1 and 19-3B in bladder cancer and normal cells before and after treatment with TSA. mRNA levels were assessed by RT-qPCR using TLDA (see Materials and Methods in experimental section). The ratio between treated versus non-treated cells is shown. Error bars represent the variation between two independent experiments. […]

[6] = tested on: genes within the seven epigenetic regions in NHU, MGHU3, RT112 and T24 cells; experiment: Re-expression of genes of the seven RES regions after TSA, RT-qPCR (TLDA), NHU, MGHU3, RT112 and T24
Procedure: as §4, §5

[7] = most of the genes in all three regions

Nc1ncn([C@H]2C[C@H](O)[C@@H](CO)O2)c(=O)n1 [5-aza-deoxycytidine]
re-expression of genes in downregulated regions 2-7, 3-2, 3-5, 7-2, 14-1, 19-3A and 19-3B ([1]; effect if ratio >1.5): reexpression of most of the genes in seven regions
genes re-expressed after 5-aza-deoxycytidine treatment alone ([1]; BSN (3-5), SKAP2, HOXA4, HOXA5 (7-2), EFS, AP1G2 (14-1), 5 μM, 72 hours): re-expressed
re-expression of genes in regions 6-7 and 17-7 [1]: either to no re-expression or re-expression of only one isolated gene

Nc1ccccc1NC(=O)c1ccc(CNC(=O)OCc2cccnc2)cc1 [MS275]
gene re-expression in repressed regions on chromosome 3 (VILL to ACAA1) and 2 (HOXD8 to HOXD1) ([1]; compared with TSA, effect if ratio >1.5): enabled gene re-expression in the studied regions as well as did TSA

CC(/C=C/C(=O)NO)=C\[C@@H](C)C(=O)c1ccc(N(C)C)cc1 [TSA, trichostatin A]
IC50 [2]: 100 nM
IC50 [3]: 500 nM
re-expression of genes in downregulated regions 2-7, 3-2, 3-5, 7-2, 14-1, 19-3A and 19-3B ([1]; effect if ratio >1.5): reexpression of most of the genes in seven regions
re-expression of genes in regions 6-7 and 17-7 [1]: either to no re-expression or re-expression of only one isolated gene
H3K9 and H3K27 trimethylation at promoters of BSN, HOXA1, DHRS2 and JAK3 (regions 3-5, 7-2, 14-1, 19-3B) [4]: these marks were decreased
levels of active mark (H3K9ac) at promoters, regions 2-7, 3-2 and 19-3A [4, 7]: increased the levels of the active mark
levels of inactive marks (H3K9me3, H3K27me3) at promoters, regions 2-7, 3-2 and 19-3A [4, 7]: decreased the levels of the inactive marks
re-expression of the regions in TCCSUP cell line ([5]; TCCSUP, TSA treatment): all regions were re-expressed
re-expression of genes within the seven epigenetic regions ([5]; second group: TCCSUP, HT1376 and JMSU1, 300 nM TSA 16 hours): gene re-expression was observed for most of the silenced regions after treatment
re-expression of the regions in RT112 cells ([6]; RT112, TSA treatment): no region was re-expressed, except two genes in region 7-2
re-expression of genes within the seven epigenetic regions ([6]; first group: NHU, MGHU3, RT112 and T24, 300 nM TSA 16 hours): most of the genes were not re-expressed, except for a few isolated genes in some cell lines
